For series [1], the system named is megakaryocytopoiesis. Briefly: inhibition of TPO-induced megakaryocytopoiesis (differentiation of human CD34+ stem cells into megakaryocytes). Conditions: read-out: anti-megakaryocytic IC50. Format: cell-based. An excerpt: Such activity may be assessed using a well established model. Assessment of the in vitro anti-megakaryocytic activity—and potentially therefore the platelet lowering capability—of the anagrelide prodrugs can be determined using the model of megakaryocytopoiesis (Cohen-Solal et al., Thromb. Haemost. 1997, 78:37-41 and Cramer et al., Blood, 1997, 89:2336-46). This involves examining the differentiation of human CD34^+ stem cells into megakaryocytes which ultimately give rise to blood platelets.

Series [2] relates to megakaryocytopoiesis. To be noted: cited from earlier work.
A short description of series [3]: human pharmacokinetics of anagrelide and its metabolite.
In series [4] the test system is human phosphodiesterase III (PDE III). Nature of the series: PDE III inhibition. The series is classed as biochemical.
For series [5] the following is noted: in vivo; cited from earlier work.
A short description of another series: aqueous solubility. The series is classed as physicochemical.
Series [6] addresses human phosphodiesterase III (PDE III). To be noted: cited from earlier work.
Another series in a line: in vivo. To be noted: dog. On the procedure: The potential benefit of improved water solubility on the absorption of these open-ring analogues was shown in a comparative bioavailability study in the dog. Using the unsubstituted ethyl-5,6-dichloro-3,4-dihydro-2-(1H)-iminoquinazoline-3-acetate HBr as a model compound, a comparison was made of the systemic availability of anagrelide when given as this compound or as anagrelide itself in equimolar doses (7.7 & 6.1 mg/kg respectively).
The lesser variability was consistent with more efficient absorption. This study illustrated the potential benefits of the open-ring prodrugs to improve absorption.

Series [7] concerns erythroid or myelomonocytic differentiation. Conditions: stimulated by erythropoietin or granulocyte-macrophage colony-stimulating factor; cited from earlier work.
Series [8] can be described thus: conversion of prodrug to anagrelide in human plasma (LC/MS-MS). The series is classed as in vitro ADME. Conditions: spiked 100 ng/mL, room temperature, first point of measurement (immediately after mixing). On the procedure: Such prodrugs are likely to be extremely rapidly and completely cyclised in plasma to the closed ring 3-alkylanagrelide analogues. […] Human plasma was spiked with anagrelide prodrug (final concentration 100 ng/mL). Immediately after mixing, and at 15, 30, 45 and 60 minutes afterward samples were analysed for anagrelide prodrug and anagrelide.

pIC50: −log10 of the molar value. Like-named read-outs stand apart in the source and are kept apart here.

For the molecule `CC1(C)C(=O)NC2=Nc3ccc(Cl)c(Cl)c3CN21` [3,3-dimethyl anagrelide], the pIC50 (commonly the IC50 on a negative log10 scale, so that one unit is a factor of ten) with megakaryocytopoiesis [1] was ~6.80.
As for `O=C1NC2=Nc3ccc(Cl)c(Cl)c3CN2C1O` (stereo not drawn) [3-hydroxyanagrelide], the “potency in inhibition of megakaryocytopoiesis relative to parent drug” value in the series on megakaryocytopoiesis [2] is recorded as “no more potent than the parent drug”. The “in vivo exposure relative to parent drug” value in [3] was 2-3 fold. Besides, the “potency as PDE III inhibitor relative to anagrelide” value in [4] is reported as “over 40 fold”. Also, in series [5], the typical half-life is 2.5 h.
As for `O=C1CN2Cc3c(ccc(Cl)c3Cl)N=C2N1` [Anagrelide, 6,7-dichloro-1,5-dihydroimidazo[2,1-b]-quinazolin-2(3H)-one], the pIC50 was ~7.59 with megakaryocytopoiesis [2] (estimated, background statement, read-out: IC50 inhibition of TPO-induced megakaryocytopoiesis); ~7.54 in [6]; 7.57 with megakaryocytopoiesis [1] (Homo sapiens). Also, the solubility – broadly, the dissolved amount per volume that the medium holds – in “aqueous solubility” (aqueous, pH 7, aqueous buffer, read-out: aqueous solubility) is < 10 µg/mL. Further, the metabolite-to-drug exposure ratio in the series “in vivo” (male) was determined as 1.5. For the same molecule, in “in vivo” (male, AUC for anagrelide, range), the exposure (AUC) (usually concentration integrated over time) lay in the range of 21.6 to 188 ng·h/mL. The highest concentration (Cmax) – broadly, the maximum level reached in the sampled fluid or tissue – in “in vivo” (male, Cmax for anagrelide, range) lay in the range of 9.5 to 44.3 ng/mL. Also, the “effect on erythroid or myelomonocytic differentiation” value in [7] was “does not affect”. Moreover, in [5], the first pass effect is recorded as > 50%. Moreover, the typical half-life in series [5] was 1.5 h.
In the case of `Br.CCOC(=O)CN1Cc2c(ccc(Cl)c2Cl)NC1=N` [ethyl-5,6-dichloro-3,4-dihydro-2-(1H)-iminoquinazoline-3-acetate HBr], in “aqueous solubility” (distilled water), the solubility is ~5500 µg/mL. Moreover, the “prodrug remaining in human plasma” value in series [8] is “no prodrug could be found”. The metabolite-to-drug exposure ratio in “in vivo” came to 0.9. In addition, in “in vivo” (6.1 mg/kg), the “fold higher Cmax for anagrelide than after anagrelide itself” value was “approximately 17 fold” and the “mean fold higher AUC for anagrelide than after anagrelide itself” value stood at 16 fold.
Turning to `Cc1[nH]c(=O)c(C#N)cc1-c1ccncc1` [milrinone], the negative logarithm of the IC50 (pIC50) in series [6] is 6.46 to 6.77.

The values are drawn from patent US20110065735A1, “SUBSTITUTED QUINAZOLINES” (Shire LLC, priority 2008, published 2011).
